In ChEMBL document CHEMBL2331254, “Pyrrolopyrimidine inhibitors of DNA gyrase B (GyrB) and topoisomerase IV (ParE), Part II: development of inhibitors with broad spectrum, Gram-negative antibacterial activity” (Bioorg Med Chem Lett, 2013) one finds Ki and MIC data, which are given here for 24 compounds.

The structures appear in SMILES notation. Converted amounts (≈) assume the structure as drawn.

The nature of assay [1]: Inhibition of Escherichia coli parE assessed as release of inorganic phosphate from ATP hydrolysis after 30 mins by coupled spectrophotometric assay.
For assay [2], the system named is Staphylococcus aureus. The assay is described as follows: Antibacterial activity against Staphylococcus aureus ATCC 13709 by broth microdilution method. It counts as functional.
The subject of assay [3] is Escherichia coli. The assay is described as follows: Antibacterial activity against permeabilized Escherichia coli IBAS849 by broth microdilution method. Format: functional.
Assay [4] has as its system Escherichia coli. The assay is described as follows: Antibacterial activity against Escherichia coli BW25113 harboring deltatolC by broth microdilution method. Format: functional.
For assay [5], the system named is Escherichia coli. The assay is described as follows: Antibacterial activity against wild type Escherichia coli ATCC 25922 by broth microdilution method. Format: functional.
A short description of assay [6]: Inhibition of Francisella tularensis GyrB assessed as release of inorganic phosphate from ATP hydrolysis after 30 mins by coupled spectrophotometric assay.
Assay [7] is described as follows: Inhibition of Escherichia coli GyrB assessed as release of inorganic phosphate from ATP hydrolysis after 30 mins by coupled spectrophotometric assay.

With `CCc1[nH]c2nc(Sc3cnc4nccnc4c3)nc(N3C[C@@H]4[C@H](C3)[C@@]4(N)C(N)=O)c2c1Cl`, the Ki in assay [1] was less than 1 nM. Moreover, the minimal inhibitory concentration (MIC) in assay [2] is 0.25 µg/mL (≈ 0.519 µM); in assay [3], 2 µg/mL (≈ 4.15 µM); in assay [4], 0.25 µg/mL (≈ 0.519 µM); in assay [5] it was greater than 64 µg/mL.

Turning to `CCc1[nH]c2nc(Sc3cccnc3)nc(Cl)c2c1Cl`, the Ki in assay [6] is 488 nM. In addition, the MIC was 4 µg/mL (≈ 12.3 µM) in assay [2], greater than 64 µg/mL in assay [3] and greater than 64 µg/mL in assay [5].

On to `CCc1[nH]c2nc(Sc3cncc(S(=O)(=O)N(C)C)c3)nc(N3C[C@@H]4[C@@H](N)[C@@H]4C3)c2c1Cl`, for which the values for the Ki in assay [7] and in assay [1] were 2 nM and 19 nM, respectively. Besides, the MIC in assay [2] was 2 µg/mL (≈ 4.05 µM); in assay [3], 32 µg/mL (≈ 64.8 µM); in assay [4] it was 4 µg/mL (≈ 8.1 µM); in assay [5], greater than 64 µg/mL.

For the compound `CCc1[nH]c2nc(Sc3ccc4ccc(C(=O)O)nc4c3)nc(N3CCC(N)C3)c2c1Cl` (centres undefined), the Ki in assay [7] is less than 0.5 nM; in assay [1], 2 nM. The MIC in assay [2] is 2 µg/mL (≈ 4.26 µM); in assay [3], greater than 64 µg/mL; in assay [4], 8 µg/mL (≈ 17.1 µM); in assay [5] it was greater than 64 µg/mL.

Turning to `CCc1[nH]c2nc(Sc3ccc4[nH]cc(C(=O)O)c(=O)c4c3)nc(N3CCC(N)C3)c2c1Cl` (centres undefined), the Ki is less than 0.5 nM in assay [7] and 1 nM in assay [1]. The MIC in assay [2], in assay [3], in assay [4] and in assay [5] was greater than 64 µg/mL throughout.

`CCc1[nH]c2nc(Sc3ccc4c(N5CCC(N)C5)nc(C(=O)O)nc4c3)nc(N3CCC(N)C3)c2c1Cl` (centres undefined): the inhibition constant (Ki) in assay [7] was less than 0.5 nM; in assay [1] it was 1 nM. The MIC amounted to 8 µg/mL (≈ 14.4 µM) in assay [2], 4 µg/mL (≈ 7.22 µM) in assay [3], 8 µg/mL (≈ 14.4 µM) in assay [4] and 8 µg/mL (≈ 14.4 µM) in assay [5].

As to `CCc1[nH]c2nc(Sc3ccc4c(N)nc(C)nc4c3)nc(N3CCC(N)C3)c2c1Cl` (centres undefined), the Ki in assay [7] was less than 0.5 nM; in assay [1] it was 2 nM. For the same compound, the MIC in assay [2] came to 2 µg/mL (≈ 4.4 µM); in assay [3], 8 µg/mL (≈ 17.6 µM); in assay [4], 2 µg/mL (≈ 4.4 µM); in assay [5], 16 µg/mL (≈ 35.2 µM).

As for `CCc1[nH]c2nc(Sc3ccc4c(N5CC(N)C5)ncnc4c3)nc(N3CCC(N)C3)c2c1Cl` (centres undefined), the Ki in assay [7] was less than 0.5 nM; in assay [1], 7 nM. Also, the MIC in assay [2] came out at 16 µg/mL (≈ 32.3 µM); in assay [3] it was 8 µg/mL (≈ 16.1 µM); in assay [4] it was 4 µg/mL (≈ 8.06 µM); in assay [5] it was 8 µg/mL (≈ 16.1 µM).

On to `CCc1[nH]c2nc(Sc3ccc4cc5c([n+]([O-])c4c3)CCNC5)nc(N3CCC(N)C3)c2c1Cl` (centres undefined), for which the Ki in assay [7] is less than 0.5 nM; in assay [1], 6 nM. The MIC in assay [2] turned out to be 2 µg/mL (≈ 4.03 µM); in assay [3], 16 µg/mL (≈ 32.3 µM); in assay [4], 4 µg/mL (≈ 8.06 µM); in assay [5], 16 µg/mL (≈ 32.3 µM).

With `CCc1[nH]c2nc(Sc3cnc4nccnc4c3)nc(N3CCC4(CCCN4)C3)c2c1Cl` (centres undefined), the values for the Ki in assay [6] and in assay [1] were 6 nM and 35 nM, respectively. For the same compound, the MIC was 4 µg/mL (≈ 8.57 µM) in assay [2], 16 µg/mL (≈ 34.3 µM) in assay [3], 8 µg/mL (≈ 17.1 µM) in assay [4] and greater than 64 µg/mL in assay [5].

For the compound `CCc1[nH]c2nc(Sc3cnc4nccnc4c3)nc(N3CC4CNC4C3)c2c1Cl` (centres undefined), the results for the Ki in assay [6] and in assay [1] were less than 1 nM and 2 nM, respectively. The MIC in assay [2] came out at 0.5 µg/mL (≈ 1.14 µM); in assay [3], 2 µg/mL (≈ 4.56 µM); in assay [4], 1 µg/mL (≈ 2.28 µM); in assay [5], 16 µg/mL (≈ 36.5 µM).

For `CCc1[nH]c2nc(Sc3cnc4nccnc4c3)nc(N3CC4CCNC4C3)c2c1Cl` (centres undefined), the Ki in assay [6] was less than 1 nM; in assay [1], 6 nM. The MIC in assay [2] amounted to 1 µg/mL (≈ 2.21 µM); in assay [3] it was 4 µg/mL (≈ 8.83 µM); in assay [4] it was 2 µg/mL (≈ 4.42 µM); in assay [5], 32 µg/mL (≈ 70.6 µM).

Take `CCc1[nH]c2nc(Sc3cnc4nccnc4c3)nc(N3CC4CNCC4C3)c2c1Cl` (centres undefined): the Ki in assay [6] is less than 1 nM; in assay [1], 17 nM. Also, the MIC was 2 µg/mL (≈ 4.42 µM) in assay [2], 8 µg/mL (≈ 17.7 µM) in assay [3], 8 µg/mL (≈ 17.7 µM) in assay [4] and greater than 64 µg/mL in assay [5].

On to `CCNC(=O)NC1CN(c2nc(Sc3cnc4nccnc4c3)nc3[nH]c(CC)c(Cl)c23)C1`, for which the Ki is less than 1 nM in assay [6] and 2 nM in assay [1]. The MIC in assay [2], in assay [3], in assay [4] and in assay [5] was greater than 64 µg/mL in each case.

With `CCc1[nH]c2nc(Sc3cnc4nccnc4c3)nc(N3CC(NS(C)(=O)=O)C3)c2c1Cl`, the Ki in assay [6] was less than 1 nM; in assay [1], 9 nM. The values for the MIC in assay [2], in assay [3] and in assay [5] were 4 µg/mL (≈ 8.15 µM), 32 µg/mL (≈ 65.2 µM) and greater than 64 µg/mL, respectively.

In the case of `CCc1[nH]c2nc(Sc3cnc4nccnc4c3)nc(N3CC(NC(=O)C4CC4)C3)c2c1Cl`, the results for the Ki in assay [6] and in assay [1] were less than 1 nM and 3 nM, respectively. For the same compound, the MIC in assay [2] was 1 µg/mL (≈ 2.08 µM); in assay [3], 8 µg/mL (≈ 16.6 µM); in assay [4] it was 4 µg/mL (≈ 8.32 µM); in assay [5], greater than 64 µg/mL.

On to `CCc1[nH]c2nc(Sc3cnc4nccnc4c3)nc(N3CC(NC(=O)COC)C3)c2c1Cl`, for which the Ki in assay [6] was less than 1 nM; in assay [1], 10 nM. Also, the minimum inhibitory concentration (MIC) in assay [2] was 0.25 µg/mL (≈ 0.515 µM); in assay [3], 4 µg/mL (≈ 8.25 µM); in assay [4] it was 2 µg/mL (≈ 4.12 µM); in assay [5] it was greater than 64 µg/mL.

`CCc1[nH]c2nc(Sc3cnc4nccnc4c3)nc(N3CC(NC(=O)c4cnccn4)C3)c2c1Cl`: the Ki in assay [6] was less than 1 nM; in assay [1], 9 nM. The MIC was 1 µg/mL (≈ 1.93 µM) in assay [2], 8 µg/mL (≈ 15.4 µM) in assay [3], 4 µg/mL (≈ 7.71 µM) in assay [4] and 64 µg/mL (≈ 123 µM) in assay [5].

Regarding `CCc1[nH]c2nc(Sc3cnc4nccnc4c3)nc(N3C[C@@H]4[C@H](C3)[C@H]4NC(=N)N)c2c1Cl`, the Ki in assay [1] was less than 1 nM. The MIC in assay [2] is 0.25 µg/mL (≈ 0.52 µM); in assay [3], 2 µg/mL (≈ 4.16 µM); in assay [4], 2 µg/mL (≈ 4.16 µM); in assay [5], 64 µg/mL (≈ 133 µM).

On to `CCc1[nH]c2nc(Sc3cnc4nccnc4c3)nc(N3C[C@@H]4[C@H](C3)[C@@]4(N)CO)c2c1Cl`, for which the inhibition constant (Ki) in assay [6] is less than 1 nM; in assay [1], 2 nM. Further, the MIC in assay [2] amounted to 0.25 µg/mL (≈ 0.533 µM); in assay [3], 4 µg/mL (≈ 8.53 µM); in assay [4], 0.5 µg/mL (≈ 1.07 µM); in assay [5], 64 µg/mL (≈ 136 µM).

As to `CCc1[nH]c2nc(Sc3cnc4nccnc4c3)nc(N3CC(C)(N)C3)c2c1Cl`, the values for the Ki in assay [6] and in assay [1] were 16 nM and 69 nM, respectively. Moreover, the MIC in assay [2] was 4 µg/mL (≈ 9.37 µM); in assay [3] it was 16 µg/mL (≈ 37.5 µM); in assay [4] it was 16 µg/mL (≈ 37.5 µM); in assay [5], greater than 64 µg/mL.

Take `CCc1[nH]c2nc(Sc3cnc4nccnc4c3)nc(N3CCC(N)C3)c2c1Cl` (centres undefined): the Ki was less than 1 nM in assay [6] and 11 nM in assay [1]. The MIC stood at 1 µg/mL (≈ 2.34 µM) in assay [2], 4 µg/mL (≈ 9.37 µM) in assay [3], 2 µg/mL (≈ 4.68 µM) in assay [4] and 32 µg/mL (≈ 75 µM) in assay [5].

With `CCc1[nH]c2nc(Sc3cnc4nccnc4c3)nc(N3CCC(NC)C3)c2c1Cl` (centres undefined), the Ki in assay [6] is 2 nM; in assay [1] it was 40 nM. The MIC in assay [2] was 2 µg/mL (≈ 4.54 µM); in assay [3], 16 µg/mL (≈ 36.3 µM); in assay [4], 8 µg/mL (≈ 18.1 µM); in assay [5], greater than 64 µg/mL.

On to `CCc1[nH]c2nc(Sc3cnc4nccnc4c3)nc(N3CCCC(N)C3)c2c1Cl` (centres undefined), for which the Ki in assay [6] turned out to be 7 nM; in assay [1] it was 131 nM. In addition, the minimal inhibitory concentration (MIC) is 8 µg/mL (≈ 18.1 µM) in assay [2], 32 µg/mL (≈ 72.6 µM) in assay [3], 16 µg/mL (≈ 36.3 µM) in assay [4] and greater than 64 µg/mL in assay [5].
